The values that follow come from ChEMBL document CHEMBL1138586 (Bioorg Med Chem Lett, 2009).

pIC50: −log10 of the molar value. Bounds are passed on as bounds.

Sequence of Coagulation factor X (P00742 41-179 limits assumed): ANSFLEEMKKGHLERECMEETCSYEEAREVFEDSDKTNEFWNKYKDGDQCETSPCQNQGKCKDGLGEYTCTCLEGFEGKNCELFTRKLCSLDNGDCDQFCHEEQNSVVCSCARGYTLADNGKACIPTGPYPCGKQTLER
Sequence of Coagulation factor X (P00742 235-488 limits assumed): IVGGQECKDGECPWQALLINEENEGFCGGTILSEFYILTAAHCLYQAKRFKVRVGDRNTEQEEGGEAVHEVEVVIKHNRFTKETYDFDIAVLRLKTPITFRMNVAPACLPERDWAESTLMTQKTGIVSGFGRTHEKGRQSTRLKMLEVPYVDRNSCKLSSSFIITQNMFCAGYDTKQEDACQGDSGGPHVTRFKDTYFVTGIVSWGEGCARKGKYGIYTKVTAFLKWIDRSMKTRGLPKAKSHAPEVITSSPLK

One data set has as its target Coagulation factor X (Homo sapiens, UniProt P00742). The data set is described as follows: Inhibition of Factor 10a.
Details: not given
For the compound `CCSc1ccc(NC(=O)c2ccc(C(=N)N(C)C)cc2)c(C(=O)Nc2ccc(Cl)cn2)c1`, the negative logarithm of the IC50 (pIC50) – broadly, the IC50 on a negative log10 scale, so that one unit is a factor of ten – was 8.89.

The compound `COc1cc(C(=O)Nc2ccc(Cl)cc2C(=O)Nc2ccc(Cl)cn2)ccc1C(=N)N(C)C` showed a pIC50 of 8.15.

Compound `CN(C)C(=N)c1ccc(C(=O)Nc2ccc(Cl)cc2C(=O)Nc2ccc(Cl)cc2)cc1` showed a pIC50 of 9.15.

With `CN(C)C(=N)c1ccc(C(=O)Nc2ccc(Cl)cc2C(=O)Nc2ccc(Cl)nc2)cc1`, the pIC50 is 8.52.

In turn, `CN(C)CCOc1cc(C(=N)N(C)C)ccc1C(=O)Nc1ccc(Cl)cc1C(=O)Nc1ccc(Cl)cn1` gave a pIC50 of more than 9.30.

Consider `CN(C)C(=N)c1csc(C(=O)Nc2ccc(Cl)cc2C(=O)Nc2ccc(Cl)cn2)c1`, for which the pIC50 was 9.00.

For the compound `CN(C)C(=N)c1ccc(C(=O)Nc2ccsc2C(=O)Nc2ccc(Cl)cn2)cc1`, the pIC50 is 8.70.

In turn, `N=C(c1ccc(C(=O)Nc2ccc(Cl)cc2C(=O)Nc2ccc(Cl)cn2)cc1)N1CCOCC1` gave a negative logarithm of the IC50 (pIC50) of 8.70.

With `CCN1CCN=C1c1ccc(C(=O)Nc2ccc(Cl)cc2C(=O)Nc2ccc(Cl)cn2)cc1`, the pIC50 is 8.22.

On to `C#Cc1ccc(NC(=O)c2ccc(C(=N)N(C)C)cc2)c(C(=O)Nc2ccc(Cl)cn2)c1`, for which the pIC50 is more than 9.30.

Compound `CCN(C)c1cc(Cl)cc(C(=O)Nc2ccc(Cl)cn2)c1NC(=O)c1ccc(C(=N)N(C)C)cc1` had a pIC50 of 9.30.

Turning to `CN(C)C(=N)c1ccc(C(=O)Nc2c(Cl)cccc2C(=O)Nc2ccc(Cl)cn2)cc1`, the pIC50 is 7.68.

`CN(C)C(=N)c1ccc(C(=O)Nc2ccc(C(F)(F)F)cc2C(=O)Nc2ccc(Cl)cn2)cc1` showed a pIC50 of 8.89.

`CN(C)C(=N)c1ccc(C(=O)Nc2ccc(Cl)cc2C(=O)Nc2ccc(Cl)cn2)c(N2CCC(C(=O)O)CC2)c1` gave a negative logarithm of the IC50 (pIC50) of 9.15.

Take `CN(C)C(=N)c1ccc(C(=O)Nc2c(C(=O)Nc3ccc(Cl)cn3)cc(Cl)cc2N2CCCCC2)cc1`: the negative logarithm of the IC50 (pIC50) is 9.05.

Take `CN(C)C(=N)c1ccc(C(=O)Nc2ccc(OC(F)(F)F)cc2C(=O)Nc2ccc(Cl)cn2)cc1`: the negative logarithm of the IC50 (pIC50) was 7.77.

`CN1CCN=C1c1ccc(C(=O)Nc2ccc(Cl)cc2C(=O)Nc2ccc(Cl)cn2)cc1`: the pIC50 is 8.82.

On to `CN(C)C(=N)c1ccc(C(=O)Nc2ccc(Cl)cc2C(=O)Nc2ccc(Cl)cn2)c(N2CCCC2)c1`, for which the pIC50 was 8.70.

Regarding `CN(C)C(=N)c1ccc(C(=O)Nc2ccc(Cl)cc2C(=O)Nc2ccc(Cl)cn2)c(N(C)C)c1`, the pIC50 is 8.52.

Regarding `N=C(c1ccc(C(=O)Nc2ccc(Cl)cc2C(=O)Nc2ccc(Cl)cn2)cc1)N1CCC(C(=O)O)CC1`, the negative logarithm of the IC50 (pIC50) was 8.70.

In turn, `CN(C)C(=N)c1ccc(C(=O)Nc2ccc(Cl)cc2C(=O)Nc2ccc(Cl)s2)cc1` showed a pIC50 of 8.22.

As for `CN(C)C(=N)c1ccc(C(=O)Nc2ccc(Cl)cc2C(=O)Nc2ccc(Cl)cn2)c(N2CCCCC2)c1`, the pIC50 was more than 9.30.

On to `COc1cc(C(=N)N(C)C)ccc1C(=O)Nc1ccc(Cl)cc1C(=O)Nc1ccc(Cl)cn1`, for which the negative logarithm of the IC50 (pIC50) was 9.30.

Take `CN(C)C(=N)c1ccc(C(=O)Nc2ccc(F)cc2C(=O)Nc2ccc(Cl)cn2)cc1`: the pIC50 is 8.85.

Turning to `CN(C)C(=N)c1ccc(C(=O)Nc2ccc(Cl)cc2C(=O)Nc2ccc(Cl)cn2)cn1`, the pIC50 was 8.52.

For the compound `CN(C)C(=N)c1ccc(C(=O)Nc2ccc(Cl)cc2C(=O)Nc2ccc(Cl)cn2)c(N2CCC2)c1`, the pIC50 was 9.40.

Regarding `COc1ccc(NC(=O)c2ccc(C(=N)N(C)C)cc2N2CCCCC2)c(C(=O)Nc2ccc(Cl)cn2)c1`, the negative-log IC50 (pIC50) was 8.70.

`CC(C)Oc1cc(Cl)cc(C(=O)Nc2ccc(Cl)cn2)c1NC(=O)c1ccc(C(=N)N(C)C)cc1`: the pIC50 was 9.30.

As to `COCCN(C)c1cc(C(=N)N(C)C)ccc1C(=O)Nc1ccc(Cl)cc1C(=O)Nc1ccc(Cl)cn1`, the pIC50 was 9.30.

Turning to `CN(C)C(=N)c1ccc(C(=O)Nc2cc(Cl)ccc2C(=O)Nc2ccc(Cl)cn2)cc1`, the pIC50 was 8.70.

For `CN(C)C(=N)c1ccc(C(=O)Nc2c(C(=O)Nc3ccc(Cl)cn3)cc(Cl)cc2N(C)C)cc1`, the pIC50 is 9.30.

The compound `CN(C)C(=N)c1ccc(C(=O)Nc2ccc(C#N)cc2C(=O)Nc2ccc(Cl)cn2)cc1` gave a pIC50 of 8.92.

`N=C(c1ccc(C(=O)Nc2ccc(Cl)cc2C(=O)Nc2ccc(Cl)cn2)cc1)N1CCCCC1`: the pIC50 was 8.89.

`CN(C)C(=N)c1ccc(C(=O)Nc2ccc(S(C)(=O)=O)cc2C(=O)Nc2ccc(Cl)cn2)cc1`: the pIC50 is 8.82.

`C#Cc1ccc(NC(=O)c2cc(Cl)ccc2NC(=O)c2ccc(C(=N)N(C)C)cc2)cc1` gave a negative-log IC50 (pIC50) of 9.05.

In turn, `N=C(c1ccc(C(=O)Nc2ccc(Cl)cc2C(=O)Nc2ccc(Cl)cn2)cc1)N1CCC1` gave a pIC50 of 8.92.

`COCCOc1cc(C(=N)N(C)C)ccc1C(=O)Nc1ccc(Cl)cc1C(=O)Nc1ccc(Cl)cn1`: the negative-log IC50 (pIC50) is 8.92.

Take `CN(C)C(=N)c1ccc(C(=O)Nc2ccc(Cl)cc2C(=O)Nc2ccc(Cl)cn2)c(N2CCOCC2)c1`: the negative logarithm of the IC50 (pIC50) was 9.15.

As for `CN(C)C(=N)c1ccc(C(=O)Nc2ccc(Cl)cc2C(=O)Nc2ccc(Cl)cn2)c(N2CCCCCC2)c1`, the pIC50 was 9.00.

As to `Cc1ccc(NC(=O)c2cc(Cl)ccc2NC(=O)c2ccc(C(=N)N(C)C)cc2)nc1`, the negative logarithm of the IC50 (pIC50) is 8.96.

In the case of `CCOc1cc(Cl)cc(C(=O)Nc2ccc(Cl)cn2)c1NC(=O)c1ccc(C(=N)N(C)C)cc1`, the pIC50 was 9.22.

The compound `CN(C)C(=N)c1ccc(C(=O)Nc2ccc(Cl)cc2C(=O)Nc2ccc(F)cn2)cc1` had a pIC50 of 8.52.

For `Cc1ccc(NC(=O)c2ccc(C(=N)N(C)C)cc2)c(C(=O)Nc2ccc(Cl)cn2)c1`, the pIC50 was 9.15.

Turning to `COCCN(C)c1cc(Cl)cc(C(=O)Nc2ccc(Cl)cn2)c1NC(=O)c1ccc(C(=N)N(C)C)cc1`, the negative-log IC50 (pIC50) is 8.92.

As for `COc1ccc(NC(=O)c2ccc(C(=N)N(C)C)cc2N2CCC(C(=O)O)CC2)c(C(=O)Nc2ccc(Cl)cn2)c1`, the pIC50 is 9.05.

As for `CN(C)C(=N)c1ccc(C(=O)Nc2ccc(OCC(F)(F)F)cc2C(=O)Nc2ccc(Cl)cn2)cc1`, the pIC50 is 8.00.

For `CCN(C)C(=N)c1ccc(C(=O)Nc2ccc(Cl)cc2C(=O)Nc2ccc(Cl)cn2)cc1`, the negative-log IC50 (pIC50) was 9.05.

Compound `CN(C)C(=N)c1ccc(C(=O)Nc2c(C(=O)Nc3ccc(Cl)cn3)cc(Cl)cc2N2CCOCC2)cc1` gave a negative-log IC50 (pIC50) of 8.89.

Regarding `COc1cc(Cl)cc(C(=O)Nc2ccc(Cl)cn2)c1NC(=O)c1ccc(C(=N)N(C)C)cc1`, the pIC50 was 9.22.

`CN(C)C(=N)c1ccc(C(=O)Nc2ccc(OCC(=O)O)cc2C(=O)Nc2ccc(Cl)cn2)cc1`: the pIC50 was 8.22.

`CN(C)C(=N)c1ccc(C(=O)Nc2ccc(Cl)cc2C(=O)Nc2ccc(Cl)cn2)cc1F`: the negative logarithm of the IC50 (pIC50) was 8.96.

Take `CCc1ccc(NC(=O)c2ccc(C(=N)N(C)C)cc2)c(C(=O)Nc2ccc(Cl)cn2)c1`: the pIC50 was 9.00.

`N=C(c1ccc(C(=O)Nc2ccc(Cl)cc2C(=O)Nc2ccc(Cl)cn2)cc1)N1CCCC1` gave a pIC50 of 8.70.

Test system in the next data set: not listed separately
Description: Clearance in rat. It counts as ADME, organism-based. Particulars: in vivo.
For the compound `C#Cc1ccc(NC(=O)c2ccc(C(=N)N(C)C)cc2)c(C(=O)Nc2ccc(Cl)cn2)c1`, the clearance (usually the rate of elimination divided by the concentration) was 74.8 mL/min/kg.

Test system in the next data set: not listed separately
The data set is described as follows: Half life in rat. The data set is classed as ADME, organism-based. To be noted: in vivo.
For `C#Cc1ccc(NC(=O)c2ccc(C(=N)N(C)C)cc2)c(C(=O)Nc2ccc(Cl)cn2)c1`, the half-life (in general, how long it takes for the measured level to halve) was 8.4 h.

Test system in a further data set: not listed separately
Description: Oral bioavailability in rat. It counts as ADME, organism-based. To be noted: in vivo.
Regarding `C#Cc1ccc(NC(=O)c2ccc(C(=N)N(C)C)cc2)c(C(=O)Nc2ccc(Cl)cn2)c1`, the bioavailability (in general, dose-corrected exposure relative to a reference, in per cent) is 27.9%.

For `CN(C)C(=N)c1ccc(C(=O)Nc2ccc(Cl)cc2C(=O)Nc2ccc(Cl)cn2)c(N2CCCC2)c1`, the bioavailability came to 6.9%.

Compound `CN(C)C(=N)c1ccc(C(=O)Nc2ccc(Cl)cc2C(=O)Nc2ccc(Cl)cn2)c(N2CCCCC2)c1` came in with a bioavailability of 21.3%.

In the case of `COCCN(C)c1cc(Cl)cc(C(=O)Nc2ccc(Cl)cn2)c1NC(=O)c1ccc(C(=N)N(C)C)cc1`, the bioavailability is 8.1%.

`COc1ccc(NC(=O)c2ccc(C(=N)N(C)C)cc2N2CCC(C(=O)O)CC2)c(C(=O)Nc2ccc(Cl)cn2)c1` showed a bioavailability of less than 5%.

In turn, `COc1cc(Cl)cc(C(=O)Nc2ccc(Cl)cn2)c1NC(=O)c1ccc(C(=N)N(C)C)cc1` yielded a bioavailability of 11.2%.

Compound `CN(C)C(=N)c1ccc(C(=O)Nc2ccc(OCC(=O)O)cc2C(=O)Nc2ccc(Cl)cn2)cc1` registered a bioavailability of less than 5%.
